Results on two compounds are retold here after patent US6432952B1, “Polymorphic form of a tachykinin receptor antagonist” (Merck & Co., Inc., priority 1999, dated 2002).

Read-outs that look alike come from different tables or passages of the source.

The nature of data set [1]: Stability of the crystalline form as neat solid. The format is physicochemical.
A short description of data set [2]: Solubility in isopropyl acetate. The format is physicochemical. As to the method: Solubility The solubility of Form I of 2-(R)-(1-(R)-(3,5-bis(trifluoromethyl)-phenyl)ethoxy)-4-(5-(dimethylamino)methyl-1,2,3-triazol-4-yl)methyl-3-(S)-(4-fluorophenyl)morpholine hydrochloride in isopropyl acetate at 25° C. was determined to be 7.4±0.3 mg/ml.
Data set [3] has as its system retching and vomiting induced by cisplatin. Description: Ferret model of cisplatin-induced emesis (Tattersall et al.). The format is in vivo.

`C[C@@H](O[C@H]1OCCN(Cc2nn[nH]c2CN(C)C)[C@H]1c1ccc(F)cc1)c1cc(C(F)(F)F)cc(C(F)(F)F)c1.Cl` [Form I, 2-(R)-(1-(R)-(3,5-bis(trifluoromethyl)phenyl)ethoxy)-4-(5-(dimethylamino)methyl-1,2,3-triazol-4-yl)methyl-3-(S)-(4-fluorophenyl)morpholine hydrochloride]: the “thermodynamic stability relative to the other form” value in data set [1] (Form I versus Form II) is “thermodynamically more stable than Form II”. The thermal stability result in data set [1] (as a neat solid) is listed as “high degree of thermal stability”. Further, the solubility in data set [2] was 10900 ± 1100 µg/mL; in data set [2] (25 °C, organic solvent or mixture, solubility), 7400 ± 300 µg/mL. In addition, the “thermodynamic stability of Form I over Form II, from the ratio of the solubilities” value in data set [2] (at 25° C., isopropyl acetate) is recorded as “approximately 0.2 kcal/mol”.
As to `C[C@@H](O[C@H]1OCCN(Cc2nn[nH]c2CN(C)C)[C@H]1c1ccc(F)cc1)c1cc(C(F)(F)F)cc(C(F)(F)F)c1.Cl` [compound of the present invention, 2-(R)-(1-(R)-(3,5-bis(trifluoromethyl)phenyl)ethoxy)-4-(5-(dimethylamino)methyl-1,2,3-triazol-4-yl)methyl-3-(S)-(4-fluorophenyl)-morpholine hydrochloride], the “effect on retching and vomiting induced by cisplatin” value in data set [3] was “attenuate the retching and vomiting induced by cisplatin”.
